# Measurements published in patent US20140000882A1, “PETROLEUM RECOVERY PROCESS AND SYSTEM” (Shell Oil Company, priority 2012, published 2014).
# Assay: Oil recovery from formation core by brine displacement followed by DMS displacement
# Conditions: after waterflooding with brine
# Description: Incremental recovery of oil from a formation core using an oil recovery formulation consisting of dimethyl sulfide following oil recovery from the core by water-flooding was measured to evaluate the effectiveness of DMS as a tertiary oil recovery agent.
# Two 5.02 cm long Berea sandstone cores with a core diameter of 3.78 cm and a permeability between 925 and 1325 mD were saturated with a brine having a composition as set forth in Table 7.
# After saturation of the cores with brine, the brine was displaced by a Middle Eastern Asphaltic crude oil having the characteristics as set forth above in Table 3 to saturate the cores with oil.
# Oil was recovered from each oil saturated core by the addition of brine to the core under pressure and by subsequent addition of DMS to the core under pressure. Each core was treated as follows to determine the amount of oil recovered from the core by addition of brine followed by addition of DMS. Oil was initially displaced from the core by addition of brine to the core under pressure. A confining pressure of 1 MPa was applied to the core during addition of the brine, and the flow rate of brine to the core was set at 0.05 ml/min. The core was maintained at a temperature of 50° C. during displacement of oil from the core with brine. […]
structure (smiles),measurement,value
"CSC [Dimethyl Sulfide, dimethyl sulfide]",oil remaining in the core after the waterflood recovered,approximately 60%
